Results from US4769321A, “Assay method and reagent therefor” (priority 1979, dated 1988).

Assays:
PK(I) = assay: Detection of ATP by activation of the PFK/PK(I) feedback system (Example B2); assay type: biochemical, E. coli; conditions: 0.0001 to 0.5 mM ATP; 340 nm, 30° C.
Protocol: Cultures of E. coli strain K1-1 were grown on a synthetic medium containing essential nutrients and glycerol as carbon source, until well into their logarithmic phase of growth. The cells were harvested, washed by centrifugation and resuspended in a sonication buffer of 5 mM phosphate, 1 mM EDTA, 2 mM mercaptoethanol pH 7.5 in an amount of approximately 20 mg dry weight per ml. They were then disrupted with an MSE ultrasonic disintegrator for 4 minutes (in 30 seconds bursts while cooled). The resulting crude extract was separated from cell debris by centrifugation. As well as containing pyruvate kinase (I) this extract also contained an interfering isoenzyme with different properties, and also a number of other interfering enzyme activities. It was found, however, that it was possible to remove these contaminants by heating the extract to 55° C. for 20-60, for example 45, minutes. This is the source of pyruvate kinase (I) referred to in the following examples.
In this example the same basic system described in Example 1 was again used, but instead of the system being used to detect an enzyme capable of giving rise to ATP, the pre-existing ATP in a solution was assayed, using a PK(I) extract which had been prepared by heating at 55° C. for 60 minutes.
As in the previous example, the assays were carried out in quartz spectrophotometer cuvettes for use with 1.0 ml assay mixtures. […]

[1] = test system: E. coli Type I pyruvate kinase (PK); conditions: in the presence of certain amounts of phosphoenolpyruvate; cited from earlier work
creatine kinase = assay: Creatine phosphate detection with creatine kinase as reagent (Example B7); assay type: biochemical, bovine; conditions: for O.D. Units (340 nm) change/minute at 1.5 minutes: CK 0.05 U, 30° C., nil CP gave 0.0011
Protocol: Mixtures were made up in 10 mM dimethyl-glutamate buffer at pH 6.8 and containing 5 mM MgCl2 and 0.1% in bovine serum albumin as follows:
In each case the components were combined from stock solutions in a quartz cuvette of 1 ml capacity, mixed and immediately monitored for NADH oxidation by following their optical density at 340 nm and 30° C.

alkaline phosphatase = assay: Detection of alkaline phosphatase by antibody-coated wells and NAD cycle (Example A1); assay type: biochemical, bovine (calf); conditions: ten-fold dilutions 1:1000 to 1:10^7; pH 9.3; room temperature
Protocol: The alkaline phosphatase used in this example is as obtainable from the Sigma Chemical Co (London) Ltd Type VII from bovine (calf) intestine catalogue number P4502 (1981). Antibody is raised against this material by any of the standard procedures. For example 0.5 mg of the alkaline phosphatase suspension is taken and made to 1.0 ml with distilled water and shaken gently. One ml of Freund's complete adjuvant is then added and the mixture homogenised through a connector between two hypodermic syringes back and forth until a stable water-in-oil emulsion is produced. Approximately 1 ml of the emulsion is then injected intramuscularly into each hindquarter of a rabbit. The injections are repeated two and four weeks later with the same amount of alkaline phosphatase but without the added Freund's adjuvant. Blood is then taken from the immunised animal two weeks after the last injection and the immune-serum taken off after clotting has taken place. An IgG fraction of the serum is then obtained by the standard procedure of DEAE Cellulose Chromatography set out in Methods in Immunology by D. H. Cambell, J. S. Garvey, N. E. Cremer and D. H. Sussdorf, 2nd Edition (1970) pages 193-197, published by W. A. Benjamin, Reading Mass. […] The plates are now ready for use. […]

Q: Which “initiation and rate of NADH oxidation vs ATP concentration” value (PK(I)) does the source give for Nc1ncnc2c1ncn2[C@@H]1O[C@H](COP(=O)(O)OP(=O)(O)OP(=O)(O)O)[C@@H](O)[C@H]1O [ATP, adenosine 5'-triphosphate] here?
A: Its value is “The higher concentrations of ATP gave rise to an earlier initiation of observable NADH oxidation and subsequently increased in their rate faster than the lower concentrations”.

Q: Which “activation of E. coli Type I pyruvate kinase” value [1] does the source give for O=C(COP(=O)(O)O)[C@@H](O)[C@H](O)[C@H](O)COP(=O)(O)O [fructose-1,6-diphosphate] here?
A: The value was “very potent activator”.

Q: Which results are given for CN(CC(=O)O)C(=N)NP(=O)(O)O [CP, creatine phosphate]?
A: dependence of the system on creatine phosphate (creatine kinase): dependent on the presence of creatine phosphate and the concentration thereof; O.D. Units (340 nm) change/minute at 1.5 minutes (creatine kinase; CP concentration 0.4 mM): 0.0070 O.D. Units (340 nm) change/min; O.D. Units (340 nm) change/minute at 1.5 minutes (creatine kinase; CP concentration 4.0 mM): 0.0118 O.D. Units (340 nm) change/min

B1: alkaline phosphatase: Sigma Type VII from bovine (calf) intestine catalogue number P4502 (protein, UniProt P19111 20-506, looked up)
Intestinal-type alkaline …: LVPVEEEDPAFWNRQAAQALDVAKKLQPIQTAAKNVILFLGDGMGVPTVTATRILKGQMNGKLGPETPLAMDQFPYVALSKTYNVDRQVPDSAGTATAYLCGVKGNYRTIGVSAAARYNQCKTTRGNEVTSVMNRAKKAGKSVGVVTTTRVQHASPAGAYAHTVNRNWYSDADLPADAQMNGCQDIAAQLVNNMDIDVILGGGRKYMFPVGTPDPEYPDDASVNGVRKRKQNLVQAWQAKHQGAQYVWNRTALLQAADDSSVTHLMGLFEPADMKYNVQQDHTKDPTLQEMTEVALRVVSRNPRGFYLFVEGGRIDHGHHDDKAYMALTEAGMFDNAIAKANELTSELDTLILVTADHSHVFSFGGYTLRGTSIFGLAPSKALDSKSYTSILYGNGPGYALGGGSRPDVNDSTSEDPSYQQQAAVPQASETHGGEDVAVFARGPQAHLVHGVEEETFVAHIMAFAGCVEPYTDCNLPAPTTATSIPD
Q: With B1 as the molecule, how does the “colour change in wells vs alkaline phosphatase concentration” value (alkaline phosphatase) read?
A: Its value is “change of colour from pale yellow to black much faster than did those which had been exposed to a lower concentration”.
